Read-outs that look alike come from different tables or passages of the source. Where a SMILES comes first, the peptide text is derived from it. [ ]: non-standard residue; d: D form. The star is where a group is joined. hLys(Nζ-OH,Nζ-For) = N[C@@H](CCCCCN(O)C=O)C(=O)O; Asu = N[C@@H](CCCCCC(=O)O)C(=O)O; dPip = O=C(O)[C@H]1CCCCN1; X2 = Nc1ccccc1O*
Key:
[1] = from H-dTyr(Me)-Ile-DL-Pip-A2oc(For,OBzl)-OH; amide bond; 12-membered ring; HATU/DIEA; DMF; 1.6 mM; 25.0 °C
human HDAC1 = target: T1, human HDAC1 (Homo sapiens, UniProt Q13547); assay: HDAC inhibitory activity in vitro (coumarin-labeled acetylated histone peptide), HDAC1; format: biochemical
T1 construct: FLAG; made in house; host or cells: 293T cells, transient transfection; anti-FLAG immunoprecipitation and FLAG peptide elution

human HDAC4 = target: T2, human HDAC4 (Homo sapiens, UniProt P56524); assay: HDAC inhibitory activity in vitro (coumarin-labeled acetylated histone peptide), HDAC4; format: biochemical
T2 construct: FLAG; made in house; host or cells: 293T cells, transient transfection; anti-FLAG immunoprecipitation and FLAG peptide elution

mouse HDAC6 = target: T3, mouse HDAC6 (Mus musculus, UniProt Q9Z2V5); assay: HDAC inhibitory activity in vitro (coumarin-labeled acetylated histone peptide), HDAC6; format: biochemical
T3 construct: HA; made in house; host or cells: 293T cells, transient transfection; anti-HA immunoprecipitation and HA peptide elution
T3 sequence (Q9Z2V5 1-1149): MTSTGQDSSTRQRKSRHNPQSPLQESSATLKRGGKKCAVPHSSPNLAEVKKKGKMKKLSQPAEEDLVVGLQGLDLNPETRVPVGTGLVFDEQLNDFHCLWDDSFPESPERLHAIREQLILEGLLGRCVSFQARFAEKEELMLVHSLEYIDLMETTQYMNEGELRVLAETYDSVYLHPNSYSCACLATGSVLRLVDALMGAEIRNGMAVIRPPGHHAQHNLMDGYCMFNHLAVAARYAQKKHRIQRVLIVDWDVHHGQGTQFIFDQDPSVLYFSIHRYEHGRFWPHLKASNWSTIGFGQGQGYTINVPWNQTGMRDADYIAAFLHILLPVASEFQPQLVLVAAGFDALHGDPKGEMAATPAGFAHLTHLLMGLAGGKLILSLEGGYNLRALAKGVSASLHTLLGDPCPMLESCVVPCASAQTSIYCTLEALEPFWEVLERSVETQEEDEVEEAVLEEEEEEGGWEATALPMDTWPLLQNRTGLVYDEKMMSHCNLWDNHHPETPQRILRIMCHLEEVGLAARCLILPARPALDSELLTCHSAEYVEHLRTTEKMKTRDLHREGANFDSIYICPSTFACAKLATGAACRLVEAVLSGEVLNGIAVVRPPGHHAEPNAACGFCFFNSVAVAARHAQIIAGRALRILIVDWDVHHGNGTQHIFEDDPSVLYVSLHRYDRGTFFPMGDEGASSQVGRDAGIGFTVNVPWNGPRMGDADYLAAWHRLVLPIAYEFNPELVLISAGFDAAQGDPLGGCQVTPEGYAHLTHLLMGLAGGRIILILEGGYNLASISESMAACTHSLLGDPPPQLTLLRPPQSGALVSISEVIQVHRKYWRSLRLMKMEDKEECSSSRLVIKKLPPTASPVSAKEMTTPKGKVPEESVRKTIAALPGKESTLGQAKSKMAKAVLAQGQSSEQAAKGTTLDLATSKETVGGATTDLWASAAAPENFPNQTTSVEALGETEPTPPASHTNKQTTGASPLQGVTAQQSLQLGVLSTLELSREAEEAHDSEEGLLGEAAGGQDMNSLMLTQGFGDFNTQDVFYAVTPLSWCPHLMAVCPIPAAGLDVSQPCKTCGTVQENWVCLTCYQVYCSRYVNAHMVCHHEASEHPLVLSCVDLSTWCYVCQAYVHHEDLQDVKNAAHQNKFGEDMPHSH

[2] = test system: human wild-type p21 promoter; assay: p21 promoter-inducing activity (luciferase) in MFLL-9 cells; format: cell-based
Description: The HDAC inhibitory activity in vivo was measured using p21 promoter-inducing activity as an index, as shown below. The MFLL-9 cells employed for the experiments stably maintained fusion genes of human wild-type p21 promoter and luciferase (Dr. B. Vogelstaein). Using phenol red-free DMEM medium comprising 10% FBS, cultivation was carried out in a steam-saturated incubator at 37° C. with 5% carbon dioxide. The MFLL-9 cells were plated at a density of 85,000 cells/well on a 96-well microtiter plate, each in 99 μl of the above-mentioned medium. These were then cultivated for six hours. One μl of test compound solution was added to each well, which was then cultured for another 18 hours.
The intensity of luminescence caused by the product of the enzyme reaction for intracellular luciferase expression was measured using Luc Lite (Packard BioScience Company).
HDAC inhibitory activity in an in vivo system was measured using p21 promoter induction as index. The experimental method followed that of Example 11.

[3] = Table 1, 37° C., 30 minutes, read-out: IC50 (μM) HDAC1
[4] = Table 1, 37° C., 30 minutes, read-out: IC50 (μM) HDAC4
[5] = Table 1, 37° C., 30 minutes, read-out: IC50 (μM) HDAC6
[6] = Table 1, MFLL-9 cells, 18 hours, concentration corresponding to 50% of the maximum active value for TSA

T1 sequence (Q13547 whole entry): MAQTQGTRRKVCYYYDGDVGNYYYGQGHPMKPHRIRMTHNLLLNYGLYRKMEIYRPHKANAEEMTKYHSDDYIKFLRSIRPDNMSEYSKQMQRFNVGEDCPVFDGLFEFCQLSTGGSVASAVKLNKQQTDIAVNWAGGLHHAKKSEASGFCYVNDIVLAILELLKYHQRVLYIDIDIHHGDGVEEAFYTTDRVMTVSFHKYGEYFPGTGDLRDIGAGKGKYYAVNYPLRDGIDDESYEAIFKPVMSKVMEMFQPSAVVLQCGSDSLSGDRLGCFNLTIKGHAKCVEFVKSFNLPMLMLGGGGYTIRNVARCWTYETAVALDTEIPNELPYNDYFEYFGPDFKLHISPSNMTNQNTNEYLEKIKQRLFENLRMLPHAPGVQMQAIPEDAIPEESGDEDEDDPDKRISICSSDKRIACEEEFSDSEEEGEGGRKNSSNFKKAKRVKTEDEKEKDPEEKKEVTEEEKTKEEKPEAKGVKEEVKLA
T2 sequence (P56524 whole entry): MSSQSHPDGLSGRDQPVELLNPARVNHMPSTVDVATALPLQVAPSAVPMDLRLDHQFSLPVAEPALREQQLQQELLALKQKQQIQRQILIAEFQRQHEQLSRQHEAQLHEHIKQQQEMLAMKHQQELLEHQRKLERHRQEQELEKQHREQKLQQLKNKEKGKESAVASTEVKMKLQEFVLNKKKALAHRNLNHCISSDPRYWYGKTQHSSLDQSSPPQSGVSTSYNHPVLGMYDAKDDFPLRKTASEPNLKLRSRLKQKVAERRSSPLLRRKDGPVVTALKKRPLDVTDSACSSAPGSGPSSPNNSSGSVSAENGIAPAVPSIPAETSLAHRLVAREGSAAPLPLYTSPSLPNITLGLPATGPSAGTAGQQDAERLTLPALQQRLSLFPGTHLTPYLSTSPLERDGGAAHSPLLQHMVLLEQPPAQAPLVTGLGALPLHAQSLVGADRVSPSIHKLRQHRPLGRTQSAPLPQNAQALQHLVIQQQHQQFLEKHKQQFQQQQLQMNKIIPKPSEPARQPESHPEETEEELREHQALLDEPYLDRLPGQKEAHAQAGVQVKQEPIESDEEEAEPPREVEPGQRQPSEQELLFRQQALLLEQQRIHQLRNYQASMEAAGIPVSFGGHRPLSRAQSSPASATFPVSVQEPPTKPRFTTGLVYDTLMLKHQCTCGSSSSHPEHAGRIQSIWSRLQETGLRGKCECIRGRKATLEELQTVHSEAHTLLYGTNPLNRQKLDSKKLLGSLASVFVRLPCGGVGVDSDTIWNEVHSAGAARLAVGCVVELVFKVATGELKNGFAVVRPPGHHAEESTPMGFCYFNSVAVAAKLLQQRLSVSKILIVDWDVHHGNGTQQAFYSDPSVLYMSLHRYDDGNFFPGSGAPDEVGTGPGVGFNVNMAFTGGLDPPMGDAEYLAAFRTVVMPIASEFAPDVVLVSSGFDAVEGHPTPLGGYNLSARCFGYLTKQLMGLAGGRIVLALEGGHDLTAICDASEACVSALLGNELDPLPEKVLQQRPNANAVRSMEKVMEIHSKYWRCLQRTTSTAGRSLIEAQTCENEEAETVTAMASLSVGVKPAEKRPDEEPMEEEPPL

| Structure (SMILES) | IC50 (human HDAC1; [3]) [µM] | IC50 (human HDAC4; [4]) [µM] | IC50 (mouse HDAC6; [5]) [µM] | also measured |
| --- | --- | --- | --- | --- |
| CC[C@H](C)[C@@H]1NC(=O)[C@@H](Cc2ccc(OC)cc2)NC(=O)[C@H](CCCCCCN(C=O)OCc2ccccc2)NC(=O)C2CCCCN2C1=O (mixture of isomers) [Cyclo(-L-A2oc(For, OBzl)-D-Tyr(Me)-L-Ile-DL-Pip-)] | – | – | – | ring closure, isolated yield [1]: 21% |
| CC[C@H](C)[C@@H]1NC(=O)[C@@H](Cc2ccc(OC)cc2)NC(=O)[C@H](CCCCCC(=O)O)NC(=O)[C@H]2CCCN2C1=O [COOH, cyclo(L-Asu-D-Tyr(Me)-L-Ile-D-Pro)] (cyclo([Asu][dY](Me)I[dP])) | 4.07 | 5.69 | > 500 | EC50 [2, 6]: > 100 µM |
| CC[C@H](C)[C@@H]1NC(=O)[C@@H](Cc2ccc(OC)cc2)NC(=O)[C@H](CCCCCC(=O)OC)NC(=O)[C@H]2CCCN2C1=O [COOMe, cyclo(-L-Asu(OMe)-D-Tyr(Me)-L-Ile-D-Pro-)] (cyclo([Asu](OMe)[dY](Me)I[dP])) | 0.12 | 0.07 | > 500 | EC50 [2, 6]: 3.95 µM |
| CC[C@H](C)[C@@H]1NC(=O)[C@@H](Cc2ccc(OC)cc2)NC(=O)[C@H](CCCCCN(O)C=O)NC(=O)[C@@H]2CCCN2C1=O [N(OH)COH Cyclo(X-y(Me)-I-P), n = 5] (cyclo([hLys(Nζ-OH,Nζ-For)][dY](Me)IP)) | – | 0.09 | 0.029 | – |
| CC[C@H](C)[C@@H]1NC(=O)[C@@H](Cc2ccc(OC)cc2)NC(=O)[C@H](CCCCN(O)C=O)NC(=O)[C@@H]2CCCCN2C1=O [N(OH)COH Cyclo(X-y(Me)-I-Pip), n = 4] | 23.9 | 17.5 | 8.19 | – |
| CC[C@H](C)[C@@H]1NC(=O)[C@@H](Cc2ccc(OC)cc2)NC(=O)[C@H](CCCCCCN(O)C=O)NC(=O)[C@@H]2CCCCN2C1=O [N(OH)COH Cyclo(X-y(Me)-I-Pip), n = 6] | 13.5 | 18.9 | 11.2 | – |
| CC[C@H](C)[C@@H]1NC(=O)[C@@H](Cc2ccc(OC)cc2)NC(=O)[C@H](CCCCCN(O)C=O)NC(=O)[C@H]2CCCN2C1=O [N(OH)COH Cyclo(X-y(Me)-I-p), n = 5] (cyclo([hLys(Nζ-OH,Nζ-For)][dY](Me)I[dP])) | – | 0.074 | 0.78 | – |
| CC[C@H](C)[C@@H]1NC(=O)[C@@H](Cc2ccc(OC)cc2)NC(=O)[C@H](CCCCN(O)C=O)NC(=O)[C@H]2CCCCN2C1=O [N(OH)COH Cyclo(X-y(Me)-I-pip), n = 4] | 33.9 | 25.2 | 14.3 | – |
| CC[C@H](C)[C@@H]1NC(=O)[C@@H](Cc2ccc(OC)cc2)NC(=O)[C@H](CCCCCN(O)C=O)NC(=O)[C@H]2CCCCN2C1=O [N(OH)COH Cyclo(X-y(Me)-I-pip), n = 5, cyclo(-L-Hly(For, OH)-D-Tyr(Me)-L-Ile-D-Pip-)] (cyclo(I[dPip][hLys(Nζ-OH,Nζ-For)][dY](Me))) | – | – | – | IC50 (human HDAC1): 0.067 µM; IC50 (human HDAC4): 0.13 µM; IC50 (mouse HDAC6): 0.18 µM; EC50 [2, 6]: 3.73 µM |
| CC[C@H](C)[C@@H]1NC(=O)[C@@H](Cc2ccc(OC)cc2)NC(=O)[C@H](CCCCCCN(O)C=O)NC(=O)[C@H]2CCCCN2C1=O [N(OH)COH Cyclo(X-y(Me)-I-pip), n = 6] | 6.36 | 7.02 | 12.2 | – |
| CC[C@H](C)[C@@H]1NC(=O)[C@@H](Cc2ccc(OC)cc2)NC(=O)[C@H](CCCCCC(=O)Oc2ccccc2N)NC(=O)[C@H]2CCCN2C1=O [OAPNH, cyclo(L-Asu(OAPNH)-D-Tyr(Me)-L-Ile-D-Pro)] (cyclo([Asu](X2)[dY](Me)I[dP])) | – | – | – | IC50 (human HDAC1; Table 3, method of Example 11, read-out: IC50(μM) HDAC1): 0.4 µM; IC50 (human HDAC4; Table 3, method of Example 11, read-out: IC50(μM) HDAC4): 0.24 µM; IC50 (mouse HDAC6; Table 3, method of Example 11, read-out: IC50(μM) HDAC6): 441 µM; EC50 ([2]; Table 3, method of Example 11, 50% of the maximum activity observed in TSA): 12.9 µM |

Reference: patent publication US7662778B2, “Histone deacetylase inhibitor and process for producing the same” (Riken, priority 2003, dated 2010)
